Test results reported in patent US8609836B2, “4-aryl-2-anilino-pyrimidines” (Janssen Pharmaceutica NV, priority 2008, dated 2013).
pIC50: −log10 of the molar value.

Legend:
[1] = tested on: MDA-MB-231; assay: Cellular proliferation assay (Alamar blue), MDA-MB-231; format: cell-based; details: Homo sapiens, 10% FCS, 72 hours with compound, Alamar blue 24 h, read-out: MDA/MB231 (cellular proliferation assay, Table 4) (converted)
Experimental: (§1) […] functional properties of these compounds were tested in cellular proliferation assays on a panel of different cell lines in the presence of 10% FCS serum (37° C. and 5% (v/v) CO2). In a first step these cells were seeded and incubated for 24 hours in the absence of compound. In the second step the cells were incubated for 72 hours with the compounds to be tested for 72 hours. The viable cell number was finally assessed in a standard Alamar blue cell viability assay.
(§2) The viable cell number was assessed by incubation for either 4 h (HCT-116, H1299) 6 h (U87-MG) or 24 h (A2780, MDA-MB-231) with Alamar blue (Resazurin 9 μg/ml, K-Ferrocyanide 90 μM, K-Ferricyanide 90 μM) and the converted fluorescent product was quantified on a fluorescent plate reader (544 nm/590 nm). Effect of the compounds is calculated as of on control cells.

[2] = target: GSK3β (h) (Homo sapiens, UniProt P49841); assay: GSK-3β human kinase inhibition, SPA; format: biochemical; details: read-out: GSK3b pIC50 (converted)
GSK3β (h), sequence (P49841 whole entry): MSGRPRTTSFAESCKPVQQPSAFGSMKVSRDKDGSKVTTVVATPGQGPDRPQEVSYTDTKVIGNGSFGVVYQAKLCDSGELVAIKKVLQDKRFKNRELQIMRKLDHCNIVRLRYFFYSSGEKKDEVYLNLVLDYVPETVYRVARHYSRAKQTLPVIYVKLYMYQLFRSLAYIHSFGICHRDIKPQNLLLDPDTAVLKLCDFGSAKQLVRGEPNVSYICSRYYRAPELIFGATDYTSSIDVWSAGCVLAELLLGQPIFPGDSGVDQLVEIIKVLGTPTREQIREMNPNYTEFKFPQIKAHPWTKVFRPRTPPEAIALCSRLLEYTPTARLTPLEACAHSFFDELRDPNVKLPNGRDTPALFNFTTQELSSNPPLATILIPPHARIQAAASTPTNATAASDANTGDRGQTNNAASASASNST
How it was run: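 Radiometric: 33P-labelled peptide captured on streptavidin SPA beads after EDTA stop and imaged on Leadseeker. Reaction ran 1 h at RT, 1 μM cold ATP with 2 nM [γ-33P]ATP, 1 μM biotin-peptide substrate, human GSK3β 1 μg/ml, pH 7.4 Tris buffer.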

[3] = target: AuroraB (h) (Homo sapiens, UniProt Q96GD4); assay: Aurora-B human kinase inhibition, SPA; format: biochemical; details: read-out: AuroraB pIC50 (converted)
AuroraB (h), sequence (Q96GD4 whole entry): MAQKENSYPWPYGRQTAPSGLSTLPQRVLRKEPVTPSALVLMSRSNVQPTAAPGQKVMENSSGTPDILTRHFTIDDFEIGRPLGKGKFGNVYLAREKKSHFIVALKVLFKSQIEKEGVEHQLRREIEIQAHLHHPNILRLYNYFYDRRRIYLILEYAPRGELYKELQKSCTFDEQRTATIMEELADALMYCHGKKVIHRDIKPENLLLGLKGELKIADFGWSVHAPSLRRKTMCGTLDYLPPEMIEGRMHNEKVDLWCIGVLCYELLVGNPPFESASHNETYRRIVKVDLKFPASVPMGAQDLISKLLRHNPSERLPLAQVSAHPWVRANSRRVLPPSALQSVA
How it was run: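 AuroraB (0.5 μg/ml) phosphorylates 3 μM biotin-peptide using 0.5 μM ATP spiked with 33P-ATP in Hepes pH 7.5 with 3 mM MgCl2 and MnCl2, for 60 min at room temperature. EDTA stop solution carries streptavidin scintillant beads, and the captured radiolabel is imaged.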

[4] = target: CDK1/CyclinB (h) (Homo sapiens, UniProt P06493); assay: CDK1/CyclinB human kinase inhibition, Invitrogen's FRET assay (Z'lyte); format: biochemical; details: read-out: CDK1 pIC50 (converted)
CDK1/CyclinB (h), sequence (P06493 whole entry): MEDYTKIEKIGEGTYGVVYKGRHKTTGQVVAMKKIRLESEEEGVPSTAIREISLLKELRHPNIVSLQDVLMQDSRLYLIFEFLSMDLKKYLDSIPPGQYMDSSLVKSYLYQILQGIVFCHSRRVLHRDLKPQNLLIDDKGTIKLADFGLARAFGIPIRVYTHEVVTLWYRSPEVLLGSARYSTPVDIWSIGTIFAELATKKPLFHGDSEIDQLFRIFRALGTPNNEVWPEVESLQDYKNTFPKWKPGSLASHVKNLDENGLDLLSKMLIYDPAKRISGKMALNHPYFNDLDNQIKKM
CDK1/CyclinB (h), sequence (P14635 whole entry partner): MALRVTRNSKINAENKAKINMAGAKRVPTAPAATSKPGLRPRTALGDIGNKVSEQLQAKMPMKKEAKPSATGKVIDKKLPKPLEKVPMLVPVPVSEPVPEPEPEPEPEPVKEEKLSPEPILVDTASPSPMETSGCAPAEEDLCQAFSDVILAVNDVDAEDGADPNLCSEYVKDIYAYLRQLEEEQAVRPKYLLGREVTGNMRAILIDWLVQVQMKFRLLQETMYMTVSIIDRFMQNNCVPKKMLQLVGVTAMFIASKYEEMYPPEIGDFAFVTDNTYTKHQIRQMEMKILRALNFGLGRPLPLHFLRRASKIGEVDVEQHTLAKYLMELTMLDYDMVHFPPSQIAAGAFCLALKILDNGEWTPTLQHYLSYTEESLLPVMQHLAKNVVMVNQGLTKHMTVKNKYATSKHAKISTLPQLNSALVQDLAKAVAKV
How it was run: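 Read-out is the 460 nm/538 nm emission ratio (390 nm excitation) after a 60 min protease development step. Before that, 10 μM ATP and 2 μM Z'lyte Ser/Thr peptide 12 react 60 min at room temperature with 0.2 μg/ml human CDK1/CyclinB in Hepes pH 7.5 containing MgCl2, EGTA and Brij-35.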

[5] = target: PLK3 (h) (Homo sapiens, UniProt Q9H4B4); assay: PLK3 human kinase inhibition, SPA; format: biochemical; details: read-out: PLK3 pIC50 (converted)
PLK3 (h), sequence (Q9H4B4 whole entry): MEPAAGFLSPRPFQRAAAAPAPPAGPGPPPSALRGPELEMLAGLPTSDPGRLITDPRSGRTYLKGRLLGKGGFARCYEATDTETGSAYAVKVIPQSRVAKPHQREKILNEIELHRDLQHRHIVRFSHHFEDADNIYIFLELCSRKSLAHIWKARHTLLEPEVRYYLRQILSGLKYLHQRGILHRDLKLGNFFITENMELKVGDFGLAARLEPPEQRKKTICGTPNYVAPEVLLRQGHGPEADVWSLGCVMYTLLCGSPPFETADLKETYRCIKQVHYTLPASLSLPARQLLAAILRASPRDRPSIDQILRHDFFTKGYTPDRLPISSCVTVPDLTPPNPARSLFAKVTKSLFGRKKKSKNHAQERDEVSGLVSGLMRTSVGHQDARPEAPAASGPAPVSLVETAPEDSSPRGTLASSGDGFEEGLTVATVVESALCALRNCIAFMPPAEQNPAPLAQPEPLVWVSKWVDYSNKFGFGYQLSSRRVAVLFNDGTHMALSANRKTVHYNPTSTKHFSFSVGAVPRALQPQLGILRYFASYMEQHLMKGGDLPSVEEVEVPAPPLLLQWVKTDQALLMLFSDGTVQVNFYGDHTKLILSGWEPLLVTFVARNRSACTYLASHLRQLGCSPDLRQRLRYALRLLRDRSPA
How it was run: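 Radiometric scintillation proximity format at pH 8.0 (Hepes, MnCl2, DTT). The 2 μM biotin-peptide substrate is phosphorylated by PLK3 (h) (30 μg/ml) using 0.1 μM ATP traced with 33P, for 20 min at room temperature. EDTA stop; phosphopeptide captured on streptavidin beads and imaged.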

[6] = target: PLK2 (h) (Homo sapiens, UniProt Q9NYY3); assay: PLK2 human kinase inhibition, SPA; format: biochemical; details: read-out: PLK2 pIC50 (converted)
PLK2 (h), sequence (Q9NYY3 whole entry): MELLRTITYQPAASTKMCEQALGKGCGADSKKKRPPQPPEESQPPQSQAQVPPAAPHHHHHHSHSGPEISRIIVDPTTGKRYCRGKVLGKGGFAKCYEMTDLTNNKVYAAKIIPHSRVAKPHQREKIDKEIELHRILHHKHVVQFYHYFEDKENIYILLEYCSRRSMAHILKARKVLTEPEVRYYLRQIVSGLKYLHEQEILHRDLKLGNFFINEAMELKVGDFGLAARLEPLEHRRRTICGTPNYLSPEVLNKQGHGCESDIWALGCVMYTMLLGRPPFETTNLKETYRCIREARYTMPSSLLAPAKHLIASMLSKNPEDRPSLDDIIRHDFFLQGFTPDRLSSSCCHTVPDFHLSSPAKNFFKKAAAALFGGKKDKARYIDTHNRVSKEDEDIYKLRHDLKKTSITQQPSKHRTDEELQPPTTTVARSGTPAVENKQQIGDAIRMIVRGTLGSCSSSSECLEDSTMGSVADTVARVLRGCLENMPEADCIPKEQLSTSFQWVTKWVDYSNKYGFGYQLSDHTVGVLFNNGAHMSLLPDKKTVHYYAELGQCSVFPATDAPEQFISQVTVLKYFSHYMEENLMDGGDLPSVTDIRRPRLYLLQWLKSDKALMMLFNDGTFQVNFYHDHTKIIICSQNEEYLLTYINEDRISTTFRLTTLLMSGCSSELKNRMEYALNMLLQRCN
How it was run: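 33P incorporation into a biotinylated peptide (2 μM) was captured on streptavidin PVT beads and imaged on Leadseeker. Enzyme at 30 μg/ml, ATP 0.1 μM with 2 nM [γ-33P]ATP, Hepes pH 8.0 with MnCl2 and DTT. Incubation was 20 min at room temperature.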

[7] = target: CDK4/CyclinD1 (h) (Homo sapiens, UniProt P11802); assay: CDK4/CyclinD1 human kinase inhibition, SPA with GST-pRb substrate; format: biochemical; details: read-out: CDK4 pIC50 (converted)
CDK4/CyclinD1 (h), sequence (P11802 whole entry): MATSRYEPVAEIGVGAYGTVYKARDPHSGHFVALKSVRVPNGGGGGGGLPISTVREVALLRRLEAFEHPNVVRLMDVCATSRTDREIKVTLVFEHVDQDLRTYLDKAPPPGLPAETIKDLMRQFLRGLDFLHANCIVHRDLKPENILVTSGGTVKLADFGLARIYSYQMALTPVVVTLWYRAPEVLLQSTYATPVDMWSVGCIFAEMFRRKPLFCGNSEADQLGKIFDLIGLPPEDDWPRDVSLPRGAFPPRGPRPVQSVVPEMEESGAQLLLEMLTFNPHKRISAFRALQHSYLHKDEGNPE
CDK4/CyclinD1 (h), sequence (P24385 whole entry partner): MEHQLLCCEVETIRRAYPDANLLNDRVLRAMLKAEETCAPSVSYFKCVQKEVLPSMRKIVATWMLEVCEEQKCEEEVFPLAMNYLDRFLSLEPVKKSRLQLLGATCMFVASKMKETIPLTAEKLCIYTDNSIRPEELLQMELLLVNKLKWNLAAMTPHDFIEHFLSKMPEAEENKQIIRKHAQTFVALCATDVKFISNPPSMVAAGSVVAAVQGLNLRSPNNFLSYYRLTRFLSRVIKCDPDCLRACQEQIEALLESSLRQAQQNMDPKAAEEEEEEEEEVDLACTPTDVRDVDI
Experimental: The in vitro inhibition of a panel of kinases was assessed using either the scintillation proximity assay (SPA) as described by Cook, N. D. et al., Advances in Experimental Medicine and Biology (1991), 36; p. 525-528.
In the SPA technology the activity of the kinase of interest is measured using an appropriate biotinylated substrate that is incubated with the aforementioned kinase protein in the presence of (^33P) radiolabeled ATP. (^33P) Phosphorylation of the substrate is subsequently measured through binding of the phosphorylated substrate to streptavidine coated beads that are based on the scintillant poly(vinyl toluene) (PVT-Beads). The scintillation intensity is detected by imaging on Leadseeker.
All kinases are pre-diluted to a 10× working concentration prior to addition into the assay. The composition of the dilution buffer for each kinase is detailed below.
In a final reaction volume of 30 μl, CDK4/CyclinD1 (h) (2.5 μg/ml) is incubated with 50 mM Hepes pH 7.5, 8 mM NaF, 20 mM MgCl2, 1 mM DTT, 40 μg/ml of substrate GST-pRb, 2 nM [γ-^33P-ATP] (6.0 μCi/ml). After incubation of 60 minutes at room temperature, the reaction is stopped by addition of 40 μL of stop solution containing 8.7 mM EDTA, 0.17% Triton X-100, 25 mg/ml Glutathion SPA Beads (GE-healthcare). The plate is centrifuged and read for Scintillation topcount analyzer.

[8] = tested on: H1299; assay: Cellular proliferation assay (Alamar blue), H1299; format: cell-based; details: Homo sapiens, NCI-H1299; 10% FCS; 72 hours with compound; Alamar blue 4 h
Experimental: as §1, §2

[9] = tested on: HCT-116; assay: Cellular proliferation assay (Alamar blue), HCT-116; format: cell-based; details: Homo sapiens, 10% FCS, 72 hours with compound, Alamar blue 4 h
How it was run: (§3)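 After a 24 h compound-free attachment period, cells in 10% FCS medium are treated for 72 h at 37° C. Resazurin conversion is then quantified by fluorescence, with dye incubation lasting 4 h for HCT-116, 6 h for U87-MG and 24 h for A2780 or MDA-MB-231.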

[10] = target: PLK4 (h) (Homo sapiens, UniProt O00444); assay: PLK-4 human kinase inhibition, scintillation proximity assay (SPA); format: biochemical; details: read-out: PLK4 pIC50 (converted)
PLK4 (h), sequence (O00444 whole entry): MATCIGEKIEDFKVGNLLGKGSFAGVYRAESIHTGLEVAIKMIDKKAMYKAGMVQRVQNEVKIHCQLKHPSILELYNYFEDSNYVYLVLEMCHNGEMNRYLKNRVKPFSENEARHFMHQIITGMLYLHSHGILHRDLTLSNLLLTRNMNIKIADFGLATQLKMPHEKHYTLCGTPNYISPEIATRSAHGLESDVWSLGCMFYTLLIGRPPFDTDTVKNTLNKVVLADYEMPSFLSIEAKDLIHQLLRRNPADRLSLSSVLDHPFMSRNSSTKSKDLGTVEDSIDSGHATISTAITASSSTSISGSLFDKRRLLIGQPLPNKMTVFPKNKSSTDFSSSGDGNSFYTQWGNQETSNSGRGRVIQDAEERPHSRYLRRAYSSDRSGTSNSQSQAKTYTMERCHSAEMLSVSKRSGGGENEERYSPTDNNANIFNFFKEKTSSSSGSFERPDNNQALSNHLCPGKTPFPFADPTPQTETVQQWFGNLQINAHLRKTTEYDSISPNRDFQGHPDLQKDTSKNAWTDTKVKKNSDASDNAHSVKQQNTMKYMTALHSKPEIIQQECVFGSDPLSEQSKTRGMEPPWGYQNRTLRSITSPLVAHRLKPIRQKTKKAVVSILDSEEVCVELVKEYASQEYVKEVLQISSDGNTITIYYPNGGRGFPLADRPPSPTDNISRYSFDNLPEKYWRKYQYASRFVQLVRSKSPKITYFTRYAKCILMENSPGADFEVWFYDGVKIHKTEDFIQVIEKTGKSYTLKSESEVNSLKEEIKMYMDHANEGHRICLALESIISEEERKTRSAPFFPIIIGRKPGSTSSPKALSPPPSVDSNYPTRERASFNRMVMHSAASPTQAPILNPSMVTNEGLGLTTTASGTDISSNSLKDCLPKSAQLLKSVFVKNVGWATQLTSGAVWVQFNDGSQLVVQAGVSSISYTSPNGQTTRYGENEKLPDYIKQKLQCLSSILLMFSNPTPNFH

[11] = target: PLK1 T210D (h) (Homo sapiens, UniProt P53350, T210D); assay: PLK1 human kinase inhibition, SPA; format: biochemical; details: read-out: PLK1 pIC50 (converted)
PLK1 T210D (h), sequence (P53350 whole entry T210D): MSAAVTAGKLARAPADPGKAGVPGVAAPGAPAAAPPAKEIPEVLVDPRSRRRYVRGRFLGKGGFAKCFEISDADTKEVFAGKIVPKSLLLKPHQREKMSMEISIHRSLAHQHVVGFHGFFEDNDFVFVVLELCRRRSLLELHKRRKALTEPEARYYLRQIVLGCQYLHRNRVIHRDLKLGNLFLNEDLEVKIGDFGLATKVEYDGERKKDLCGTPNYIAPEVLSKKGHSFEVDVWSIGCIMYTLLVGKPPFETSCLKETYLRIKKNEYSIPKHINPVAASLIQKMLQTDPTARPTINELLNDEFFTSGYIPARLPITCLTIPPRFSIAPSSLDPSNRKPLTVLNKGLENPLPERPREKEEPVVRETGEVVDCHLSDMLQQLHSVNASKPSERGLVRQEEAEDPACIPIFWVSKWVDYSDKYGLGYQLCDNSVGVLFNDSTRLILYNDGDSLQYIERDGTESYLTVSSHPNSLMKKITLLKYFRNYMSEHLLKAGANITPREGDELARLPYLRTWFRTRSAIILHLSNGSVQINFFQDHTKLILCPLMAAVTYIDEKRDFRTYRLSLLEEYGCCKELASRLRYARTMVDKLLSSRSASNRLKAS
How it was run: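 Kinase incubated 40 min at room temperature with 0.1 μM ATP (2 nM [γ-33P]ATP tracer), 2 μM biotinylated peptide, pH 8.0 Hepes buffer with 2 mM MnCl2 and 1 mM DTT; enzyme at 0.125 ng/ml. Stopped with EDTA; 33P-peptide bound to streptavidin scintillant beads and imaged.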

[12] = tested on: U87-MG; assay: Cellular proliferation assay (Alamar blue), U87-MG; format: cell-based; details: Homo sapiens, U-87 MG; 10% FCS; 72 hours with compound; Alamar blue 6 h; read-out: U87-MG (cellular proliferation assay, Table 4) (converted)
How it was run: as §3

[13] = tested on: A2780; assay: Cellular proliferation assay (Alamar blue), A2780; format: cell-based; details: Homo sapiens, 10% FCS, 72 hours with compound, Alamar blue 24 h, read-out: A2780 (cellular proliferation assay, Table 4) (converted)
How it was run: as §3

IC50 [1]	IC50 [3]	IC50 [5]	IC50 [6]	IC50 [7]	pIC50 [8]	pIC50 [9]	IC50 [10]	IC50 [11]	IC50 [12]	IC50 [13]	Compound	IC50 [2]	IC50 [4]
> 10 µM	> 10 µM	> 10 µM	> 10 µM	> 10 µM	< 5.00	5.06	> 10 µM	> 10 µM	6.61 µM	> 10 µM	O=C1NCc2cccc(c2)-c2ccnc(n2)Nc2cccc(c2)CN2CCC[C@@H]12 [Compound 53]	0.126 µM	–
6.76 µM	> 10 µM	> 10 µM	> 10 µM	> 10 µM	< 5.00	5.29	1.7 µM	> 10 µM	–	–	O=C1NCCNCc2ccc(cc2)-c2ccnc(n2)Nc2ccc(N3CCOCC3)c(c2)CN2CCC1CC2 [Compound 71]	> 10 µM	9.77 µM
> 10 µM	> 10 µM	> 10 µM	> 10 µM	> 10 µM	< 5.00	< 5.00	0.692 µM	> 10 µM	–	–	O=C1CN2CCN(CC2)Cc2cc(ccc2N2CCOCC2)Nc2nccc(n2)-c2ccc(cc2)CNCCN1 [Compound 125]	> 10 µM	> 10 µM
> 10 µM	> 10 µM	> 10 µM	> 3.02 µM	> 10 µM	< 5.00	5.71	1.51 µM	> 10 µM	8.91 µM	> 10 µM	COc1cc2cc(c1)Nc1nccc(n1)-c1ccc(cc1)CN(C)CCCNC(=O)CN1CCN(CC1)C2 [Compound 133]	–	> 10 µM

More lines, now with the values behind:

Compound	IC50 [1]	IC50 [3]	IC50 [5]	IC50 [6]	IC50 [7]	pIC50 [8]	pIC50 [9]	IC50 [10]	IC50 [11]	IC50 [12]	IC50 [13]	IC50 [2]	IC50 [4]
COc1ccc2cc1CNCCCNC(=O)C1CCN(CC1)Cc1cc(ccc1N1CCOCC1)Nc1nccc-2n1 [Compound 3]	> 10 µM	1.55 µM	> 10 µM	> 10 µM	> 10 µM	< 5.00	< 5.00	0.0871 µM	> 10 µM	–	–	> 10 µM	> 10 µM
COc1ccc2cc1CNCCCNC(=O)CN1CCN(CC1)Cc1cc(ccc1N1CCOCC1)Nc1nccc-2n1 [Compound 13]	> 10 µM	4.17 µM	> 10 µM	> 10 µM	> 10 µM	< 5.00	< 5.00	0.49 µM	> 10 µM	–	–	> 10 µM	> 10 µM
CN1CCN(Cc2cc3cc(c2)Nc2nccc(n2)-c2cccc(c2)CNC(=O)[C@@H]2CCCN2C3)CC1 [Compound 28]	1.62 µM	> 10 µM	> 10 µM	> 10 µM	1.66 µM	5.65	6.44	–	> 10 µM	0.158 µM	0.55 µM	0.112 µM	0.603 µM
